Source: patent publication US20250082633A1, “COMPOUNDS AND METHODS FOR MODULATING SPLICING” (REMIX THERAPEUTICS INC., priority 2021, published 2025)
Read-outs that look alike come from different tables or passages of the source.

Tests used:
Type in all cases: cell-based
[1] = tested on: K562 cells; assay: Cell Titer Glo 2.0 cell viability assay; details: Homo sapiens, 500 cells/well, 72 hours
Method: Compounds described herein were screened for toxicity in K562 (human chronic myelogenous leukemia) and SH-SY5Y (human neuroblastoma) cells using a Cell Titer Glo 2.0 assay. • Promega CellTiter-Glo® 2.0 Cell Viability Assay (cat #G9241) • Corning 384-well TC-treated microplates (cat #3570) Cells were plated at 500 cells/well (K562 cells) in 45 μL of IMDM supplemented with 10% FBS in a 384-well opaque plate. Wells containing only medium were used as a blank control. Test compounds (e.g., compounds of Formula (I), (II), or (III)) were first serially diluted in DMSO then diluted 1:100 with IMDM+10% FBS. The final concentration of DMSO was 0.1% in each well. The cells were incubated for 72 hours at 37° C. and 5% CO2 before assaying with Cell Titer Glo 2.0 reagent.

[2] = tested on: Target C; assay: RT-qPCR splicing assay, gene panel, Target C canonical junction (CJ) mRNA; details: Homo sapiens; decrease in CJ mRNA levels; larger panel of genes; Table 3; read-out: Target C CJ IC50
Method: (§1) Compounds described herein were used to modulate RNA transcript abundance in cells. The expression of a target mRNA was measured by detecting the formation of an exon-exon junction in the canonical transcript (CJ). A compound mediated exon-inclusion event was detected by observing an increase in formation of a new junction with an alternative exon (AJ). Real-time qPCR assays were used to detect these splicing switches and interrogate the potency of various compounds towards different target genes. A high-throughput real time quantitative PCR (RT-qPCR) assay was developed to measure these two isoforms of the mRNA (CJ and AJ) for exemplary genes, such as HTT, SMN2, and MYB, together with a control housekeeping gene, GAPDH or GUSB or PPIA, used for normalization. Briefly, the A673 or K562 cell line was treated with various compounds described herein (e.g., compounds of Formula (I)). After treatment, the levels of the HTT, MYB, or SMN2 mRNA targets were determined from each sample of cell lysate by cDNA synthesis followed by qPCR.
(§2) The A673 cell line was cultured in DMEM with 10% FBS. Cells were diluted with full growth media and plated in a 96-well plate (15,000 cells in 100 ul media per well). The plate was incubated at 37° C. with 5% CO2 for 24 hours to allow cells to adhere. An 11-point 3-fold serial dilution of the compounds was made in DMSO then diluted in media in an intermediate plate. Compounds were transferred from the intermediate plate to the cell plate with the top dose at a final concentration of 10 uM in the well. Final DMSO concentration was kept at or below 0.25%. The cell plate was returned to the incubator at 37° C. with 5% CO2 for an additional 24 hours.
(§3) The K562 cell line was cultured in IMDM with 10% FBS. For K562, cells were diluted with full growth media and plated in either a 96-well plate (50,000 cells in 50 uL media per well) or a 384-well plate (8,000-40,000 cells in 45 uL media per well). An 11-point 3-fold serial dilution of the compounds were made in DMSO then diluted in media in an intermediate plate. Compound was transferred from the intermediate plate to the cell plate with the top dose at a final concentration of 10 uM in the well. Final DMSO concentration was kept at or below 0.25%. Final volume was 100 uL for 96-well plate and 50 uL for 384-well plate. The cell plate was then placed in an incubator at 37° C. with 5% CO2 for 24 hours.
(§4) The cells were then gently washed with 50 uL-100 uL cold PBS before proceeding to addition of lysis buffer. 30 uL-50 μL of room temperature lysis buffer with DNAse I (and optionally RNAsin) was added to each well. Cells were shaken/mixed thoroughly at room temperature for 5-10 minutes for lysis to take place and then 3 uL-5 μL of room temperature stop solution was added and wells were shaken/mixed again. After 2-5 minutes, the cell lysate plate was transferred to ice for RT-qPCR reaction setup. The lysates could also be frozen at −80° C. for later use.
(§5) In some cases, a direct lysis buffer was used. An appropriate volume of 3× lysis buffer (10 mM Tris, 150 mM NaCl, 1.5%-2.5% Igepal and 0.1-1 U/uL RNAsin, pH 7.4) was directly added to either K562 or A673 cells in media and mixed by pipetting 3 times. The plates were then incubated at room temperature with shaking/rocking for 20-50 minutes to allow for lysis to take place. After this time, the cell lysate plate was transferred to ice to set up for the RT-qPCR reactions. The lysates could also be frozen at −80° C. for later use.
(§6) To set up 10 uL RT-qPCR reactions, cell lysates were transferred to 384-well qPCR plates containing the master mix according to the table below. The plates were sealed, gently vortexed, and spun down before the run. The volumes were adjusted accordingly in some instances where the reaction was carried in 20 μL. The table below summarizes the components of the RT-qPCR reactions:
(§7) The RT-qPCR reaction was performed using a QuantStudio (ThermoFisher) under the following fast cycling conditions. […]

[3] = tested on: SMN2 mRNA; assay: RT-qPCR splicing assay, gene panel, SMN2 canonical junction (CJ) mRNA; details: Homo sapiens; decrease in CJ mRNA levels; larger panel of genes; Table 3; read-out: SMN2 CJ IC50
Method: as §1, §2, §3, §4, §5, §6, §7

[4] = tested on: HTT mRNA; assay: RT-qPCR splicing assay, HTT canonical (CJ) and alternative (AJ) junction mRNA; details: Homo sapiens; for IC50: read-out: HTT CJ IC50
Method: as §1
(§8) • Cells-to-CT 1-step kit: ThermoFisher A25602, Cells-to-CT lysis reagent: ThermoFisher 4391851C, TaqMan™ Fast Virus 1-Step Master Mix: ThermoFisher 4444436 • GAPDH: VIC-PL, ThermoFisher 4326317E (Assay: Hs99999905_m1)—used for K562/suspension cell lines • GUSB: VIC-PL, ThermoFisher 4326320E (Assay: Hs99999908_m1)—used for K562/suspension cell lines • PPIA: VIC-PL, ThermoFisher 4326316E (Assay: Hs99999904_m1)—used for A673/adherent cell lines
as §2, §3, §4
as §5, with “use. […]” for “use.”

[5] = tested on: MYB mRNA; assay: RT-qPCR splicing assay, MYB canonical (CJ) and alternative (AJ) junction mRNA; details: Homo sapiens; for IC50: read-out: MYB CJ IC50
Method: as §1, §8, §2, §3, §4
as §5, with “use. […]” for “use.”

[6] = decrease in CJ mRNA levels, larger panel of genes, Table 3
[7] = decrease in canonical junction mRNA, A673 or K562 cells, 24 hours treatment, Table 2

GI50 [1]: 1000 to 10000 nM | IC50 [2]: 100 to 1000 nM | IC50 [3]: 100 to 1000 nM | IC50 [4, 6]: 100 to 1000 nM | IC50 [4, 7]: 100 to 1000 nM | IC50 [5, 6]: 1000 to 10000 nM | IC50 [5, 7]: 1000 to 10000 nM
SMILES: Cc1cn2nc(-c3cc(F)c4nn(C5CCNC6(CC6)C5)cc4c3)cc2c(C)n1 (stereo not drawn) [Compound 204, 2-[2-(4-azaspiro[2.5]octan-7-yl)-7-fluoro-indazol-5-yl]-4,6-dimethyl-pyrazolo[1,5-a]pyrazine]
AC50 ([4]; increase in alternative junction mRNA, A673 or K562 cells, 24 hours treatment, Table 2, read-out: HTT AJ AC50): 100 to 1000 nM | AC50 ([5]; increase in alternative junction mRNA, A673 or K562 cells, 24 hours treatment, Table 2, read-out: MYB AJ AC50): 1000 to 10000 nM
